Row | melting point | SMILES
1 | 200 to 220 °C (dec.) | COc1cc(OC)c(F)c(N2Cc3cnc(N)nc3N(C3CCNCC3)C2=O)c1F.O=C(O)C(F)(F)F
2 | 172 to 174 °C | COc1cc(OC)c(F)c(N2Cc3cnc(NC(CO)CO)nc3N(C3CCCC3)C2=O)c1F [Example 6, 1-Cyclopentyl-3-(2,6-difluoro-3,5-dimethoxy-phenyl)-7-(2-hydroxy-1-hydroxymethyl-ethylamino)-3,4-dihydro-1H-pyrimido[4,5-d]pyrimidin-2-one]
3 | 167 °C (dec.) | COc1cc(OC)c(F)c(N2Cc3cnc(NCC(O)CN)nc3N(C3CCCC3)C2=O)c1F (stereo not drawn) [Example 7, 7-(3-Amino-2-hydroxy-propylamino)-1-cyclopentyl-3-(2,6-difluoro-3,5-dimethoxy-phenyl)-3,4-dihydro-1H-pyrimido[4,5-d]pyrimidin-2-one]
4 | 160 to 163 °C | COc1cc(OC)c(F)c(N2Cc3cnc(NCCOCCO)nc3N(C3CCCC3)C2=O)c1F [Example 8, 1-Cyclopentyl-3-(2,6-difluoro-3,5-dimethoxy-phenyl)-7-[2-(2-hydroxy-ethoxy)-ethylamino]-3,4-dihydro-1H-pyrimido[4,5-d]pyrimidin-2-one]
5 | 168 to 172 °C | CCN1C(=O)N(c2c(F)c(OC)cc(OC)c2F)Cc2cnc(NC(CO)CO)nc21 [Example 11, 3-(2,6-Difluoro-3,5-dimethoxy-phenyl)-1-ethyl-7-(2-hydroxy-1-hydroxymethyl-ethylamino)-3,4-dihydro-1H-pyrimido[4,5-d]pyrimidin-2-one]
6 | 195 to 196 °C (dec.) | COc1cc(OC)c(F)c(N2Cc3cnc(NCC(O)C(C)O)nc3N(C3CCCC3)C2=O)c1F (stereo not drawn) [Example 13, 1-Cyclopentyl-3-(2,6-difluoro-3,5-dimethoxy-phenyl)-7-(2,3-dihydroxy-butylamino)-3,4-dihydro-1H-pyrimido[4,5-d]pyrimidin-2-one]
7 | 158 °C (dec.) | COc1cc(OC)c(F)c(N2Cc3cnc(NCC(O)C(O)CN)nc3N(C3CCCC3)C2=O)c1F (stereo not drawn) [Example 15, 7-(4-Amino-2,3-dihydroxy-butylamino)-1-cyclopentyl-3-(2,6-difluoro-3,5-dimethoxy-phenyl)-3,4-dihydro-1H-pyrimido[4,5-d]pyrimidin-2-one]
8 | 86 to 88 °C | COc1cc(OC)c(F)c(N2Cc3cnc(NC[C@H](O)[C@@H](O)CO)nc3N(C3CCCC3)C2=O)c1 [Example 16, 1-Cyclopentyl-3-(2-fluoro-3,5-dimethoxy-phenyl)-7-([S,S]-2,3,4-trihydroxy-butylamino)-3,4-dihydro-1H-pyrimido[4,5-d]pyrimidin-2-one]
9 | 115 °C (dec.) | CCN1C(=O)N(c2c(F)c(OC)cc(OC)c2F)Cc2cnc(NCC(O)C(O)CN)nc21 (stereo not drawn) [Example 18, 7-(4-Amino-2,3-dihydroxy-butylamino)-3-(2,6-difluoro-3,5-dimethoxy-phenyl)-1-ethyl-3,4-dihydro-1H-pyrimido[4,5-d]pyrimidin-2-one]
10 | 128 to 129 °C | CCN1C(=O)N(c2c(F)c(OC)cc(OC)c2F)Cc2cnc(NCCCN(CCO)CCO)nc21 [Example 19, 7-{3-[Bis-(2-hydroxy-ethyl)-amino]-propylamino}-3-(2,6-difluoro-3,5-dimethoxy-phenyl)-1-ethyl-3,4-dihydro-1H-pyrimido[4,5-d]pyrimidin-2-one]
11 | 148 °C | CNc1ncc2c(n1)N(C1CCC(C(=O)O)CC1)C(=O)N(c1c(F)c(OC)cc(OC)c1F)C2 (stereo not drawn) [Example 23, 4-[3-(2,6-Difluoro-3,5-dimethoxy-phenyl)-7-methylamino-2-oxo-3,4-dihydro-2H-pyrimido[4,5-d]pyrimidin-1-yl]-cyclohexanecarboxylic Acid]
12 | 129 to 130 °C | CCOc1ccc(F)c(N2Cc3cnc(NCCCCN(CC)CC)nc3N(C3CCCC3)C2=O)c1F [Example 32, 1-Cyclopentyl-7-(4-diethylamino-butylamino)-3-(3-ethoxy-2,6-difluoro-phenyl)-3,4-dihydro-1H-pyrimido[4,5-d]pyrimidin-2-one]
13 | 108 to 110 °C | COc1cc(OC)c(F)c(N2Cc3cnc(N[C@H]4CC[C@H](O)CC4)nc3N(C3CCCC3)C2=O)c1 [Example 35, 1-Cyclopentyl-3-(2-fluoro-3,5-dimethoxy-phenyl)-7-(trans-4-hydroxy-cyclohexylamino)-3,4-dihydro-1H-pyrimido[4,5-d]pyrimidin-2-one]

Continued, molecule first:

Row | SMILES | melting point
14 | CNc1ncc2c(n1)N(C1CCNCC1)C(=O)N(c1c(F)c(OC)cc(OC)c1F)C2.O=C(O)C(F)(F)F | 135 to 140 °C
15 | CCN(CC)CCCCNc1ncc2c(n1)N(C1CCCC1)C(=O)N(c1c(F)c(OC)cc(OC)c1F)C2 [Example 2, 1-Cyclopentyl-7-(4-diethylamino-butylamino)-3-(2,6-difluoro-3,5-dimethoxy-phenyl)-3,4-dihydro-1H-pyrimido[4,5-d]pyrimidin-2-one] | 132 to 133 °C
16 | COc1cc(OC)c(F)c(N2Cc3cnc(NC[C@H](O)[C@@H](O)CO)nc3N(C3CCCC3)C2=O)c1F [Example 4, (S,S)-1-Cyclopentyl-3-(2,6-difluoro-3,5-dimethoxy-phenyl)-7-(2,3,4-trihydroxy-butylamino)-3,4-dihydro-1H-pyrimido[4,5-d]pyrimidin-2-one] | 160 °C (dec.)
17 | COc1cc(OC)c(F)c(N2Cc3cnc(NC4CCC(O)CC4)nc3N(C3CCCC3)C2=O)c1F (stereo not drawn) [Example 5, 1-Cyclopentyl-3-(2,6-difluoro-3,5-dimethoxy-phenyl)-7-(4-hydroxy-cyclohexylamino)-3,4-dihydro-1H-pyrimido[4,5-d]pyrimidin-2-one] | 208 to 212 °C (dec.)
18 | CCN(CC)CCCCNc1ncc2c(n1)N(C1CC1)C(=O)N(c1c(F)c(OC)cc(OC)c1F)C2 [Example 9, 1-Cyclopropyl-7-(4-diethylamino-butylamino)-3-(2,6-difluoro-3,5-dimethoxy-phenyl)-3,4-dihydro-1H-pyrimido[4,5-d]pyrimidin-2-one] | 139 to 141 °C
19 | CCN(CC)CCCCNc1ncc2c(n1)N(CC)C(=O)N(c1c(F)c(OC)cc(OC)c1F)C2 [Example 10, 7-(4-Diethylamino-butylamino)-3-(2,6-difluoro-3,5-dimethoxy-phenyl)-1-ethyl-3,4-dihydro-1H-pyrimido[4,5-d]pyrimidin-2-one] | 140 to 141 °C
20 | CCN1C(=O)N(c2c(F)c(OC)cc(OC)c2F)Cc2cnc(NC3CCC(O)CC3)nc21 (stereo not drawn) [Example 12, 3-(2,6-Difluoro-3,5-dimethoxy-phenyl)-1-ethyl-7-(4-hydroxy-cyclohexylamino)-3,4-dihydro-1H-pyrimido[4,5-d]pyrimidin-2-one] | 198 to 202 °C
21 | COc1cc(OC)c(F)c(N2Cc3cnc(NCC(O)CO)nc3N(C3CCCC3)C2=O)c1F (stereo not drawn) [Example 14, 1-Cyclopentyl-3-(2,6-difluoro-3,5-dimethoxy-phenyl)-7-(2,3-dihydroxy-propylamino)-3,4-dihydro-1H-pyrimido[4,5-d]pyrimidin-2-one] | 118 to 122 °C
22 | CCN1C(=O)N(c2c(F)c(OC)cc(OC)c2F)Cc2cnc(NCCOCCO)nc21 [Example 17, 3-(2,6-Difluoro-3,5-dimethoxy-phenyl)-1-ethyl-7-[2-(2-hydroxy-ethoxy)-ethylamino]-3,4-dihydro-1H-pyrimido[4,5-d]pyrimidin-2-one] | 159 to 160 °C
23 | COc1cc(OC)c(F)c(N2Cc3cnc(NCC(O)CO)nc3N(C3CCCC3)C2=O)c1F (stereo not drawn) [Example 20, 1-Cyclopentyl-3-(2,6-difluoro-3,5-dimethoxy-phenyl)-7-(2,3-dihydroxy-propylamino)-3,4-dihydro-1H-pyrimido[4,5-d]pyrimidin-2-one] | 179 to 182 °C
24 | CCN1C(=O)N(c2c(F)c(OC)cc(OC)c2F)Cc2cnc(NCC(O)C(C)O)nc21 (stereo not drawn) [Example 21, 3-(2,6-Difluoro-3,5-dimethoxy-phenyl)-7-(2,3-dihydroxy-butylamino)-1-ethyl-3,4-dihydro-1H-pyrimido[4,5-d]pyrimidin-2-one] | 171 to 173 °C
25 | COc1cc(OC)c(F)c(N2Cc3cnc(NC(CO)CO)nc3N(C3CCCC3)C2=O)c1 [Example 25, 1-Cyclopentyl-3-(2-fluoro-3,5-dimethoxy-phenyl)-7-(2-hydroxy-1-hydroxymethyl-ethylamino)-3,4-dihydro-1H-pyrimido[4,5-d]pyrimidin-2-one] | 194 to 195 °C
26 | CCN1C(=O)N(c2cc(OC)cc(OC)c2F)Cc2cnc(NCCCCO)nc21 [Example 26, 1-Ethyl-3-(2-fluoro-3,5-dimethoxy-phenyl)-7-(4-hydroxy-butylamino)-3,4-dihydro-1H-pyrimido[4,5-d]pyrimidin-2-one] | 129 to 131 °C
27 | COc1cc(OC)c(F)c(N2Cc3cnc(NC[C@H](O)CO)nc3N(C3CCCC3)C2=O)c1 [Example 27, (S)-1-Cyclopentyl-7-(2,3-dihydroxy-propylamino)-3-(2-fluoro-3,5-dimethoxy-phenyl)-3,4-dihydro-1H-pyrimido[4,5-d]pyrimidin-2-one] | 92 to 94 °C
28 | CCN1C(=O)N(c2c(F)c(OC)cc(OC)c2F)Cc2cnc(NCC(O)CO)nc21 (stereo not drawn) [Example 31, 3-(2,6-Difluoro-3,5-dimethoxy-phenyl)-7-(2,3-dihydroxy-propylamino)-1-ethyl-3,4-dihydro-1H-pyrimido[4,5-d]pyrimidin-2-one] | 148 to 152 °C
29 | COc1cc(OC)c(F)c(N2Cc3cnc(NC[C@@H](O)CO)nc3N(C3CCCC3)C2=O)c1 [Example 33, (R)-1-Cyclopentyl-7-(2,3-dihydroxy-propylamino)-3-(2-fluoro-3,5-dimethoxy-phenyl)-3,4-dihydro-1H-pyrimido[4,5-d]pyrimidin-2-one] | 89 to 91 °C
30 | CCN1C(=O)N(c2cc(OC)cc(OC)c2F)Cc2cnc(NCCOCCO)nc21 [Example 34, 1-Ethyl-3-(2-fluoro-3,5-dimethoxy-phenyl)-7-[2-(2-hydroxy-ethoxy)-ethylamino]-3,4-dihydro-1H-pyrimido[4,5-d]pyrimidin-2-one] | 143 to 146 °C

Source: patent US7196090B2, “Kinase inhibitors” (Warner-Lambert Company, priority 2002, dated 2007)
